Starred links: 1 amine or outer side, 2 acyl side, 3 side chain; linkers in the order of their positions; H or OH if unused. Positions of bridges follow the written chain, without caps; N, C: chain ends. Residues, ends and D or L forms follow the SMILES beside them. X1 = O=C(CCC[*:2])[*:1] Where only a bound is given, the exact number is not on record here.

Data set [1] deals with Prader-Willi Syndrome patients. As to conditions: after 15 days, vs placebo treated patients; cited from earlier work.
The nature of data set [2]: Gravimetric vapour sorption (GVS) of crystals. The conditions noted are these: 25° C. The class given is physicochemical. As to the method: Gravimetric vapour sorption (GVS) was performed on an SMS DVS-1. 1.4 mg of crystals and powder were added into an Al pan and exposed to stepwise relative humidity (RH) changes during two consecutive cycles: 20-30-40-50-60-70-80-70-60-50-40-30-20-10-0-10-20-30-40-50-60-70-80-90-80-70-60-50-40-30-20-10-0% RH in an open loop mode. The temperature was maintained at 25° C. and pure nitrogen flow rate of 200 ml/min was used. The dm/dt criteria applied was 0.001 weight-%/min during a 5 minute window, with a maximum time of 150 minutes for all steps, with the exception of steps at 0% RH that were set to 6 hours.

Data set [3] is classed as physicochemical. As to the method: The next day the solids were analysed by HPLC for purity and assay (FIG. 3b), TG/DTA for ease of mass loss/thermal events (FIG. 4b) as well as polarised light microscopy (PLM) and XRPD for morphology and crystalline content. […] These mass losses correspond to weakly surface bound acetonitrile and water, and are not indicative of any solvation of the crystal form itself.

As to `CC[C@H](C)[C@@H]1NC(=O)[C@H](Cc2ccc(OC)cc2)NC(=O)CCCSC[C@@H](C(=O)N2CCC[C@H]2C(=O)N[C@@H](CC(C)C)C(=O)NCC(N)=O)NC(=O)[C@H](CC(N)=O)NC(=O)[C@H](CCC(N)=O)NC1=O` [carbetocin, 1-butanoic acid-2-(O-methyl-L-tyrosine)-1-carbaoxytocin] (Y(Me)IQNCPLG-NH2; linker N-5 via X1), in data set [1], the “improvement over placebo in measurements of hyperphagia, obsessive compulsive disorder, food seeking behaviour and clinical global impression” value is given as “statistically significant improvement over placebo treated patients”.

For `CC[C@H](C)[C@@H]1NC(=O)[C@H](Cc2ccc(OC)cc2)NC(=O)CCCSC[C@@H](C(=O)N2CCC[C@H]2C(=O)N[C@@H](CC(C)C)C(=O)NCC(N)=O)NC(=O)[C@H](CC(N)=O)NC(=O)[C@H](CCC(N)=O)NC1=O` [Form III, carbetocin] (Y(Me)IQNCPLG-NH2; linker N-5 via X1), in data set [2] (crystals of Example 5, FIG. 8b), the “GVS isotherm plateau (monohydrate plus some loosely bound surface water)” value is “around 2 % (w/w)” and the “GVS second plateau, additional (pentahydrate with some loosely bound surface water)” value is “approximately 8 % (w/w)”. The “relative humidity at which the pentahydrate exists” value in data set [2] (sorption) is reported as at least 60 % RH.

In the case of `CC[C@H](C)[C@@H]1NC(=O)[C@H](Cc2ccc(OC)cc2)NC(=O)CCCSC[C@@H](C(=O)N2CCC[C@H]2C(=O)N[C@@H](CC(C)C)C(=O)NCC(N)=O)NC(=O)[C@H](CC(N)=O)NC(=O)[C@H](CCC(N)=O)NC1=O` [Form II, carbetocin] (Y(Me)IQNCPLG-NH2; linker N-5 via X1), the “total mass loss (TG/DTA)” value in data set [3] (up to 110° C., crystals of Example 4, FIG. 4b) is “approximately 0.8%”. For the same molecule, the “first mass loss (TG/DTA)” value in data set [3] (up to approximately 60° C., weakly surface bound acetonitrile and water) is on record as “approximately 0.5%”. The “second mass loss (TG/DTA)” value in data set [3] (up to approximately 110° C., weakly surface bound acetonitrile and water) was “approximately 0.3%”.

(Values after patent US12139558B2, “Method of manufacturing a pharmaceutical composition” (Ferring B.V., priority 2017, dated 2024).)
